Drawing on ChEMBL document CHEMBL3507680, “University of Dundee, Gates Library screen for HepG2 cell viability”, this text covers cytotoxicity for 96 compounds.

The series is described as follows: Human HepG2 cell viability assay in 384 well format. On the set-up: dose 125 nL, time 70.5 hour; concentration not given beside the values. The following applies: HepG2 cells, read-out: Inhibition. Type of series: toxicity, cell-based.
Turning to `CC(C)NC(=O)C[C@@H]1CCNC[C@@H]1Cc1cc(-c2ccccc2)on1`, the cytotoxicity at 70.5 h is -1.73%.
Then `CCNC(=O)N1CC[C@H]2CC(=O)N(C3CCCCC3)CC[C@H]2C1`, with -5.33%; and `Cn1nc(-c2cccs2)cc1[C@H]1CN2CC[C@H]1C[C@@H]2CN`, with -6.9%.
For the compound `Cc1cc(F)ccc1N1CCC(N2C[C@@H](C)[C@@](C)(O)C2)CC1`, the cytotoxicity at 70.5 h is -5.91%.
With `COc1ccc(CN2C[C@@H](CN(C)C)[C@@H](CO)C2)cc1CN1CCCC1`, the cytotoxicity at 70.5 h was 5.87%.
For the compound `Cc1noc(C)c1CN(C)c1nc(C2CCCC2)nc2c1cnn2C`, the cytotoxicity at 70.5 h was 9.62%.
Regarding `O=S1(=O)COCCN1CCCOc1ccc(F)cc1`, the cytotoxicity at 70.5 h was 22.1%.
As for `CCCN1CCN(C(=O)c2ccnc(N)c2)[C@H]2CS(=O)(=O)C[C@H]21`, the cytotoxicity at 70.5 h was 2.28%.
Then `CCN(Cc1cnn(C)c1)C(=O)c1ccc(C)c(N2CCNC2=O)c1`, with -17.2%; and `Cn1cc(C(=O)N2CC[C@@]3(O)CCN(C(=O)C4CCCC4)C[C@H]3C2)cn1`, with -10.4%; and `CCN1CC(C(=O)NCCc2csc(-c3ccncc3)n2)CCC1=O` (stereo unspecified), with -5.21%.
Consider `Cc1nn(C)c2nc(NCCCN3CCCC(CO)C3)sc12` (stereo unspecified), for which the cytotoxicity at 70.5 h was -9.15%.
To `CCOC(=O)C1(CCOC)CCCN(Cc2nccn2CC)C1` (stereo unspecified) belongs -18.3%; to `CN(C)C(=O)c1cc(-c2cnc(N)nc2)nc2cc(F)ccc12`, -2.39%.
Turning to `C[C@@H]1CN(Cc2cc3ccccc3n2C)CC[C@]1(C)O`, the cytotoxicity at 70.5 h was found to be 16.1%.
On to `Cc1oc(-c2ccoc2)nc1CN1CCCCC1CCc1ccccc1` (stereo unspecified), for which the cytotoxicity at 70.5 h is -2.03%.
As to `CN(CCCc1cnn(C)c1)C(=O)C1CCC(=O)N(C2CCCC2)C1` (stereo unspecified), the cytotoxicity at 70.5 h is -0.586%.
`CC(C)(O)CCc1ccc(C(=O)N2CCN(CC3CCCC3)CC2)cc1`: the cytotoxicity at 70.5 h came out at 4.24%.
`O=C(c1scc2c1OCCO2)N1CCOC(Cc2cccc(F)c2)C1` (stereo unspecified): the cytotoxicity at 70.5 h is -5.83%.
Turning to `Cc1c(-c2c(-c3ccccc3)ncn2[C@@H](C(=O)O)[C@H](C)O)cnn1C`, the cytotoxicity at 70.5 h is 3.82%.
To `CS(=O)(=O)NCCC1CN(Cc2ccccc2F)CCO1` (stereo unspecified) belongs 0.792%; to `CC1CCCCN1C1CN(c2nc(C3CCCC3)nc3c2cnn3C)C1` (stereo unspecified), -3.67%; to `CCn1cc(CN2CCN(C)C3(CCC(=O)N(CC4CC4)CC3)C2)cn1` (stereo unspecified), 1.18%.
To `CN(C)CC1(O)CCCN(c2nc(-c3ccccc3)no2)CC1` (stereo unspecified) belongs -7.51%.
Regarding `c1ccc(Cc2nc(CNC3CCOC4(CCOCC4)C3)no2)cc1` (stereo unspecified), the cytotoxicity at 70.5 h was -13.7%.
As to `CNc1ncc(CN(C)Cc2cc(O)c3cc(C)cc(C)c3n2)cn1`, the cytotoxicity at 70.5 h was -15.9%.
On to `O=C(NCc1cccnc1-n1cncn1)C1CC2(CCNCC2)CN1` (stereo unspecified), for which the cytotoxicity at 70.5 h is -4.56%.
On to `CNCC(=O)N1CCCC(c2cccc(Nc3nc(C)cc(C)n3)n2)C1` (stereo unspecified), for which the cytotoxicity at 70.5 h was 58.7%.
Then `O=C(Cn1ccnc1)N1C[C@@H]2CC[C@H](Oc3ccccc3)[C@@H]2C1`, with -3%.
Turning to `Cc1nc(N)cc(C2CN(C(=O)c3ccn(C)n3)CCO2)n1` (stereo unspecified), the cytotoxicity at 70.5 h was -11.7%.
On to `CC(=O)N1CCC(C(=O)N(C)[C@@H]2CCC[C@@H](N3CCCC3)[C@@H]2O)CC1`, for which the cytotoxicity at 70.5 h came to 41.3%.
To `COc1ccc(C2(NC(=O)CCn3cncn3)CCCCC2)cc1` belongs -6.29%.
For `O=C(c1ccccn1)N1CCc2c(nc(N3CCCC3)[nH]c2=O)C1`, the cytotoxicity at 70.5 h was -1.38%.
Regarding `O=C(Cn1c(=O)n(Cc2ccco2)c2ncccc21)NC1CCCCC1`, the cytotoxicity at 70.5 h came out at 38.5%.
As to `O=C(c1cccs1)N1CCC(Cn2nc(-c3ccco3)ccc2=O)CC1`, the cytotoxicity at 70.5 h is 8.96%.
For `O=C(Cc1ccsc1)N1CCC(n2nc(-c3ccco3)ccc2=O)CC1`, the cytotoxicity at 70.5 h was determined as 1.25%.
Consider `O=C(c1cccs1)N1CCC(n2nc(-c3ccco3)ccc2=O)CC1`, for which the cytotoxicity at 70.5 h was determined as 11.7%.
To `COc1cc2nc3n(c(=O)c2cc1OC)CCN(C)CC3` belongs 3.41%; to `Cc1cc(-c2cnc(N3CCN(C)CC3)nc2-c2ccc(C)s2)on1`, 6.38%.
`Cc1nccn1-c1cccc(C2CCCN(C3CCCCC3)C2)n1` (stereo unspecified): the cytotoxicity at 70.5 h is 2.4%.
To `CN1CCCC(Cc2cncc(Br)c2)CC1` (stereo unspecified) belongs 0.975%.
Consider `CN1CCCC[C@@H]2[C@H]1[C@@H](c1ccccc1)CCN2C(=O)c1ccccc1`, for which the cytotoxicity at 70.5 h turned out to be 1.32%.
Then `Cc1nc(O)c2nnn(C[C@H]3CCCN3C(=O)CCC3CCCC3)c2n1`, with 5.57%; and `Cc1nc(C2CCN(C(=O)c3ccc(=O)n(C)c3)CC2)c2sccn12`, with 2.35%; and `Fc1ccc(CCN2CCC(c3nnc(-c4cccnc4)o3)CC2)cc1`, with 16.7%.
With `Cn1nc(C2CCCN(Cc3ccsc3)C2)c2nccnc21` (stereo unspecified), the cytotoxicity at 70.5 h was -0.972%.
To `COc1cccc(N2CCN(CC(O)c3cc(C)sc3C)CC2)c1` (stereo unspecified) belongs -2.76%; to `O=C(Cc1ccsc1)N1CCCC(c2n[nH]c3nccnc23)C1` (stereo unspecified), 18.6%.
In the case of `Cn1nc(C2CCCN(C(=O)Cc3ccsc3)C2)c2nccnc21` (stereo unspecified), the cytotoxicity at 70.5 h is -9.48%.
On to `Cc1cc2c(=O)n3c(nc2s1)CCN(Cc1ccncc1)CC3`, for which the cytotoxicity at 70.5 h was -13.5%.
Then `OC1CCCN(Cc2c(-c3ccco3)[nH]c3ncccc23)C1` (stereo unspecified), with -4.41%; and `Cc1ccc(=O)n(CC2(O)CCN(Cc3cnc(C)nc3)CC2)n1`, with -10.4%.
Turning to `CC(=O)N1CCCCC1c1cc(CO)[nH]n1` (stereo unspecified), the cytotoxicity at 70.5 h is -18.5%.
Take `Cc1cc2c(=O)n3c(nc2s1)CCN(C(=O)c1ccncc1)CC3`: the cytotoxicity at 70.5 h was -20%.
In the case of `Cc1cccc2cc(CNCCCN3CCOCC3)c(=O)[nH]c12`, the cytotoxicity at 70.5 h stood at 33.6%.
Then `CS(=O)(=O)N1CCC(C(=O)NC(Cc2ccsc2)c2ccccn2)CC1` (stereo unspecified), with -3.67%; and `Cc1cc(C)c2cc(CNCC3CCCO3)c3nn(C)c(=O)n3c2c1` (stereo unspecified), with -6.37%.
As to `C=Cn1ncc(CN2C[C@@H]3CCCN3C[C@@H]2Cc2ccccc2)c1C`, the cytotoxicity at 70.5 h was -2.66%.
Then `CC(=O)N1CCCC(Cc2cncc(Br)c2)CC1` (stereo unspecified), with 19.5%; and `CC(C)N1CCC(Cc2cc(-c3cccc(C(=O)O)c3)ncn2)C1` (stereo unspecified), with -15%; and `CCC(=O)N1CCCC1c1nccnc1Nc1ncccn1` (stereo unspecified), with -15%.
In the case of `CN1CCCC(c2cccc(Cc3ccccc3Cl)n2)C1` (stereo unspecified), the cytotoxicity at 70.5 h was -3.75%.
`C=Cn1ncc(CN2C[C@@H]3CCCN3C[C@H]2CCSC)c1C`: the cytotoxicity at 70.5 h is -12.3%.
With `Cc1cnccc1CN1CC[C@@](C)(O)[C@H](Oc2ccccc2)C1`, the cytotoxicity at 70.5 h came to 22.4%.
Then `Cc1ncsc1-c1nnc(C2CCN(Cc3ccc(F)cc3)CC2)o1`, with 8.74%; and `Cc1cnccc1CN1C[C@@H](O)[C@H](Oc2cccc(F)c2)C1`, with -3.81%; and `O=C(c1cnco1)N1CCCC(Cc2cccc3ncccc23)C1` (stereo unspecified), with -0.138%.
Regarding `Cc1cc(Nc2nc(C)cs2)nc(C2CCCCN2CCO)n1` (stereo unspecified), the cytotoxicity at 70.5 h was determined as 32.4%.
Regarding `CCc1cc(O)nc(C2CCCN2C(=O)c2cccnc2)n1` (stereo unspecified), the cytotoxicity at 70.5 h was determined as 20.7%.
To `Cc1ncsc1-c1nnc(C2CCN(CC3CCCCC3)CC2)o1` belongs -8.62%; to `Cc1nccn1-c1cccc(C2CCCN(C(=O)c3cc[nH]n3)C2)n1` (stereo unspecified), 24.4%; to `CN(C)S(=O)(=O)N1CCCC(c2cccc(Cc3ccccc3)n2)C1` (stereo unspecified), 19%.
Then `Cc1csc(Nc2nccnc2C2CCCN2C(=O)C(C)C)n1` (stereo unspecified), with -18.2%; and `COCC(=O)N1CCC(c2nccnc2Oc2cccnc2C)CC1`, with -34%.
Regarding `O=S(=O)(c1ccccc1)N1CCCCC1c1cc[nH]n1` (stereo unspecified), the cytotoxicity at 70.5 h was 21.8%.
On to `CNc1cc(C2CCCN2C(=O)c2ccc3oc(=O)n(C)c3c2)ccn1` (stereo unspecified), for which the cytotoxicity at 70.5 h is -12.4%.
Regarding `Cc1c[nH]nc1C1CCCCN1C(=O)Cn1cc(Cl)cn1` (stereo unspecified), the cytotoxicity at 70.5 h is -15.8%.
Consider `CNc1cncc(C2CCCN2C(=O)c2ccc3oc(C)cc3c2)n1` (stereo unspecified), for which the cytotoxicity at 70.5 h is -8.56%.
As to `CNc1cncc(C2CCCN2Cc2c[nH]cn2)n1` (stereo unspecified), the cytotoxicity at 70.5 h is -18.1%.
Regarding `O=C(c1cc[nH]n1)N1CCCC(c2cccc(-n3ccnc3)n2)C1` (stereo unspecified), the cytotoxicity at 70.5 h was -10.3%.
As to `Cc1ccccc1-c1cncc(C2CCN(C(C)C)CC2)n1`, the cytotoxicity at 70.5 h is -22.4%.
On to `O=C1NCC2(CCCN(Cc3ccc(Cl)s3)C2)Oc2ccccc21` (stereo unspecified), for which the cytotoxicity at 70.5 h is -12.5%.
Turning to `CO[C@@H]1CC[C@@H](N(C)C(=O)COc2ccc(F)cc2)[C@H]1O`, the cytotoxicity at 70.5 h is -28.5%.
With `CNC(=O)c1ccc(C2CN(C(=O)COC)CCO2)nc1` (stereo unspecified), the cytotoxicity at 70.5 h is -16.7%.
Turning to `CNc1nc(C2CCCN2C(C)=O)nc2c1CCN(CC1CC1)C2` (stereo unspecified), the cytotoxicity at 70.5 h is -13.7%.
With `CC(C)c1cc(C(=O)N(C)Cc2cccc3ncccc23)n(C)n1`, the cytotoxicity at 70.5 h is -3.18%.
On to `CCCN(C(=O)COC)c1nc2c(s1)CCc1c-2cnn1C`, for which the cytotoxicity at 70.5 h came to 3.43%.
With `NC(=O)C1(CCCc2cccnc2)CCCN(c2ncccn2)C1` (stereo unspecified), the cytotoxicity at 70.5 h was -13.9%.
Take `NC[C@H]1CC[C@H](C(NC(=O)c2cccc(F)c2)c2ccccn2)CC1` (stereo partly specified): the cytotoxicity at 70.5 h stood at 41%.
As to `c1nc(CCC2CCCN2)cc(N2CCCOCC2)n1` (stereo unspecified), the cytotoxicity at 70.5 h amounted to 9.03%.
As to `Cn1nc(C2CCN(C(=O)Cc3cccc(F)c3)CC2)c2cccnc21`, the cytotoxicity at 70.5 h is -6.14%.
To `CCc1nc2ccccc2c(=O)n1CC1(O)CCN(S(C)(=O)=O)CC1` belongs -20.2%; to `c1ccc(-c2ccc(C3CNCCO3)nc2)cc1` (stereo unspecified), -19.9%.
Consider `Cc1cc(C[C@@H]2CCC[C@H]2NCc2ccccc2C(F)(F)F)on1`, for which the cytotoxicity at 70.5 h is -17.3%.
As for `Cc1cc(C[C@@H]2COC[C@H]2NCc2ccccc2C(F)(F)F)on1`, the cytotoxicity at 70.5 h is -11%.
To `Cc1cc(C)nc(Nc2cc(C3CCCN(C)C3)nc(C)n2)n1` (stereo unspecified) belongs -27.7%.
